Like-named read-outs stand apart in the source and are kept apart here.
Legend:
[1] = test system: PstI-digested lambda DNA; experiment: Post electrophoretic staining of DNA in agarose gels (Example 2); settings: for detection of stained DNA at longer wavelengths: laser scanner, 532/580 filter set
Experimental: The absorption and emission spectra of the unsymmetrical monomethincyanine dyes of the invention are shifted to longer wavelengths relative to those of commonly used nucleic acid stains. […] Invitrogen Corp.) and imaged using different detection devices. PstI-digested lambda DNA (Cat. No. D1793; Sigma-Aldrich, St. Louis, Mo.) was resolved on agarose gels in the presence of TBE buffer, pH 8.3. Lanes were loaded with a total of either 500 ng or 100 ng of DNA (the loading buffer contained 0.05% bromophenol blue (w/v), 40% sucrose (w/v), 0.5% SDS (w/v), and 0.1 M EDTA, pH 8). The gels were run at 90 V for about 90 min. After electrophoresis, the gels were submerged in a solution of TBE buffer comprising 2 μM of 6 (SL-2791) or SG1 for 1 hr. After a quick rinse, the gels were imaged with 1) a 300 nm UV transilluminator (Cat. No. T2202; Sigma-Aldrich) or a 450 nm (blue light) transilluminator (Dark Reader™; Clare Chemical Research, Denver, Colo.) and a CCD camera imaging system (Gel Logic 100; Kodak Imaging, Rochester, N.Y.) equipped with a 535 nm or a 590 nm emission filter and 2) a laser scanner fluorescent image analyzer system (FLA-300; Fujifilm, Japan) equipped with excitation/emission filter sets of 473/520 nm or 532/580 nm.

[2] = test system: HindIII-digested lambda DNA; experiment: Digestion of stained DNA (Example 7); assay type: biochemical; settings: 6557 bp band eluted from gel, restriction enzyme
Experimental: To determine whether the binding between DNA and an unsymmetrical monomethincyanine dye was strong enough to inhibit the digestion of the DNA, HindIII-digested lambda DNA (1 μg/lane) was resolved on an agarose gel (0.8%), as described above. The DNA was stained either during or after electrophoresis. The band-of-interest (e.g., the 6557 bp band) was excised from the gel using a blue light transilluminator [see FIG. 6A, the DNA was stained with 6 (SL-2791)]. DNA was eluted from the piece of agarose using a spin column (GenElute Agarose Spin Column, Cat. No. 5-6500; Sigma-Aldrich). The collected DNA was digested with an appropriate restriction enzyme, and the reaction products were analyzed on a new agarose gel (1.2%) using compound 9 (SL-2845). The left lane of FIG. 6B presents the undigested DNA and the right lane of FIG. 6B presents the digested products.

[3] = test system: HindIII-digested lambda DNA; experiment: Prestaining of DNA during electrophoresis (Example 3)
Experimental: The ability of another of the new unsymmetrical monomethincyanine dyes, i.e., compound 7 (SL-2833), to stain DNA during electrophoresis (i.e., “prestain”) was compared to that of ethidium bromide (EtBr). For this, 1 μM of 7 (SL-2833) or EtBr was added to the heated agarose before the gel was poured. The gels were loaded with 200 ng/lane and 20 ng/lane of HindIII-digested lambda DNA (Cat. No. D9780; Sigma-Aldrich) and run at 90 V for about 90 min. After electrophoresis, the gels were imaged as described above in Example 2.

[4] = test system: HindIII-digested lambda DNA; experiment: DNA gel staining, comparison of compounds 7 and 8 (Example 4); settings: 200 and 20 ng/lane DNA
Experimental: The brightness, sensitivity, and spectral properties of two of the new unsymmetrical monomethincyanine dyes, compound 7 (SL-2833) and compound 8 (SL-2834), were compared by staining gels containing 200 ng/lane and 20 ng/lane of HindIII-digested lambda DNA. The gels were processed and imaged as described above in Example 2.

[5] = test system: HindIII-digested lambda DNA and 0.2-10 kb RNA markers; experiment: Staining of DNA and RNA in gels (Example 5); settings: 200 ng/lane DNA, 1 μg/lane RNA; laser scanner 532/580 nm
Experimental: Gels were loaded with 200 ng/lane of HindIII-digested lambda DNA and 1 μg/lane of 0.2-10 kb RNA markers (Cat. No. R1386; Sigma-Aldrich). The RNA loading buffer contained 62.5% formamide (v/v), 1.14 M formaldehyde, 0.2 mg/ml bromophenol blue, 0.2 mg/ml xylene cyanol, and 1.25×MOPS-EDTA-sodium acetate buffer. After electrophoresis the gels were stained with compound 9 (SL-2845), SG1, or the RNA-specific stain SYBR® Green 2 (SG2; Invitrogen) and imaged as described above in Example 2.

[6] = test system: human alu-consnesus sequence; experiment: Real-time qPCR (Example 9); assay type: biochemical
Experimental: PCR was performed on human genomic DNA obtained from 0.16 million human peripheral blood leukocytes by direct lysis in a volume of 1 ml as described by Christopherson et al, PCR-Based Assay To Quantify Human Immunodeficiency Virus Type 1 DNA In Peripheral Blood Mononuclear Cells, 2000, J Clin Microbiol., pp. 630-634, Vol. 38. […] Additionally, a non-template control containing deionised water as sample was used. Two μl per sample were then used for real-time PCR as follows: PCR reactions were run in JumpStart™ ReadyMix™ (Sigma Aldrich, order number p2893), containing salt, buffer, Taq-DNA polymerase and deoxynucleotidetriphosphates in a final volume of 32 μl. PCR primers were added to a final concentration of 1 μM. To obtain optimal performance in real time PCR, the PCR mix was supplemented with additional MgCL2 to a final concentration of 3 mM. The DNA binding dye Nancy-520 was added to a final concentration of 200 nM. PCR primers mf39 (5′-[…]-3′) and mf40 (5′-[…]-3′) were used at a final concentration of 1 μM. These primers amplify a 133 base pair fragment of the human alu-consnesus sequence (see Clayerie et al, Alu alert, 1994, Nature, pp. 752, Vol. 371.) (available from the Genbank database: http://www.ncbi.nlm.nih.gov/Genbank/, entry nr: HSU14574). Because these repetitive sequences are highly abundant in the human genome, the PCR for alu sequences can be used to detect minute amounts of human DNA.
Real-time PCR was performed in a real-time PCR thermocycler (IQ-5, Biorad, Basel Switzerland) using the following cycling profile: Initial denaturation 94° C. 20 sec, followed for 40 cycles (94° C. 5 sec, 60° C. 5 sec, 72° C. 20 sec, 60° C. 60 sec with real-time monitoring). After cycling a melting curve analysis ranging from 55° C.-92° C. was performed with temperature increments of 0.5° C. and measurement intervals of 30 sec. Five different optical filter-sets were used for real-time PCR monitoring and melting-curve analysis according to the suppliers instructions (see table 1).
Data (FIG. 9A, 9C, 9D) were analyzed using the IQ5 software (version 2.0) or by linear regression analysis (FIG. 9B) using the statistical software GraphPad Prism version 5.01 (GraphPad Software, Inc., La Jolla, Calif.)
The first number, 485, indicates the center of the wavelength of light. The second number, 20 indicates the total breadth of wavelengths of light that can pass through it.

[7] = test system: DNA polymerase; experiment: Inhibition of DNA polymerase activity in qPCR; assay type: biochemical; settings: concentrations greater than 0.5 μM
[8] = test system: dsDNA; experiment: Binding specificity and fluorescence with dsDNA versus ssDNA
[9] = test system: HindIII-digested lambda DNA; experiment: Determination of the lower limit of detection (Example 6); settings: 300 nm UV transilluminator, CCD camera, 590 nm emission filter
Experimental: HindIII-digested lambda DNA (200 ng/lane and 20 ng/lane) was resolved on agarose gels, as described above. EtBr was added to one gel such that the DNA was stained during electrophoresis; the other gels were stained with compound 6 (SL-2791), 7 (SL-2833), 8 (SL-2834), 9 (SL-2845), or SG1 after electrophoresis. Gels were imaged using a 300 nm UV transilluminator and a CCD camera with a 590 nm emission filter.

[10] = test system: DNA polymerase; settings: high concentrations (>0.5 μM); cited from earlier work
[11] = 1 μM in gel, UV transilluminator

## CN1C(c2ccccc2)=C/C(=C\c2sc3ccccc3[n+]2CCCO)c2ccccc21 [Compound 6, 1-Methyl-4-[(2,3-dihydro-3-(3-hydroxypropyl)benzo-1,3-thiazol-2-yl)-methyliden]-2-phenyl-quinolinium perchlorate]
[1]; 2 μM stain in TBE for 1 hr, under each detection condition
  brightness of stained DNA bands compared with SG1: much brighter
[1]
  detection of stained DNA at longer wavelengths: could be detected at longer wavelengths
[2]
  enzymatic digestion of stained DNA: may be enzymatically digested

## Cc1ccc2c(c1)/C(=C/c1sc3ccccc3[n+]1CCCO)C=C(c1ccccc1)N2C [Compound 7]
[3]; [11]
  background fluorescence at top of gels compared with EtBr: lower background fluorescence
  fluorescence of stained DNA bands compared with EtBr: increased fluorescence
[3]; laser scanner 473/520 and 532/580 nm filter sets, low levels of DNA = 20 ng/lane
  imaging of stained DNA at longer wavelengths: readily imaged
[4]
  detection using the laser-based long wavelength imaging system: clearly detected
  fluorescence with blue light transilluminator and 590 nm filter as compared to UV transilluminator: reduced fluorescence

## Cc1ccc2c(c1)/C(=C/c1sc3ccccc3[n+]1CCO)C=C(c1ccccc1)N2C [Compound 8]
[4]
  detection using the laser-based long wavelength imaging system: clearly detected
  fluorescence with blue light transilluminator and 590 nm filter as compared to UV transilluminator: reduced fluorescence

## CN1C(c2ccccc2)=C/C(=C\c2sc3ccccc3[n+]2CCCCO)c2ccccc21 [Compound 9]
[5]
  staining intensity of DNA versus RNA: stained DNA more intensely than RNA
[6]; 55° C.-92° C. following PCR cycling
  robustness in DNA melt curve analysis: sufficiently robust
[6]; PCR temperature cycles
  thermostability: high thermostability
[6]; filter-set CY3, 545/30X 585/20M
  Performance of PCR in measuring Nancy-520 fluorescence: Filter set unsuitable (data not shown)
[6]; filter-set CY5, 630/30X 685/30M
  Performance of PCR in measuring Nancy-520 fluorescence: Filter set unsuitable (data not shown)
[6]; filter-set FAM, 485/20X 530/30M
  Performance of PCR in measuring Nancy-520 fluorescence: Weak
[6]; filter-set TXR, 575/30X 625/30M
  Performance of PCR in measuring Nancy-520 fluorescence: Strong amplification signals (virtually
[6]; lower concentrations than 2000 nm, data not shown
  PCR signal amplitudes at lower dye concentrations: Suitable although slightly reduced signal amplitudes
[7]
  inhibition of DNA polymerase activity: does not inhibit DNA polymerase activity
[8]
  binding specificity for dsDNA: high binding specificity
  fluorescence in the presence of dsDNA: strong fluorescence signal
  fluorescence in the presence of ssDNA or in the absence of nucleic acids: only weak fluorescence

## CCCN(CCCN(C)C)c1cc(/C=C2/Sc3ccccc3N2C)c2ccccc2[n+]1-c1ccccc1 [SG1]
[1]
  detection of stained DNA at longer wavelengths: not visible
[1]; listed as SYBR® Green 1
  detection of stained DNA at longer wavelengths: not detected
[9]
  lower limit of detection, DNA per lane: less than 1 ng
[10]
  inhibition of DNA polymerase activity: inhibit DNA polymerase activity

Reference: patent US20100041045A1, “NUCLEIC ACID FLUORESCENT STAINS” (SIGMA-ALDRICH CO., priority 2007, published 2010)
